Test results from patent US12157730B2, “Heteroaryl derivative, method for producing same, and pharmaceutical composition comprising same as effective component” (VORONOI INC., priority 2019, dated 2024).

Molecular target: T1, Ba/F3 cell EGFR Exon20 ins NPH (Homo sapiens, UniProt P00533, INS773NPH)
T1 construct: expressed in transfected cells; host or cells: Ba/F3
Assay: Ba/F3 cell proliferation suppression, EGFR Exon20 ins NPH
Type: cell-based
Settings: GI50 class; Ba/F3 cell line with NPH inserted at Exon20 of EGFR; 72 hours
Summary of the method: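 Seed 3000–5000 cells/well; after 24 h add compound (12 conc., 0.3 nM–50 um final); incubate 72 h; add CellTiter-Glo, 10 min room temperature; read luminescence; GI50 from % growth vs control, triplicate.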

Structure (SMILES)	Ba/F3 (NPH) Activity
C=CC(=O)Nc1cc(Nc2cc(N3OCC[C@@H]3Cc3cccc(F)c3)ncn2)c(OC)cc1N1CCC(N2CCOCC2)CC1 [compound 996, N-(5-((6-((S)-3-(3-fluorobenzyl)isoxazolidine-2-yl)pyrimidine-4-yl)amino)-4-methoxy-2-(4-morpholinopiperidine-1-yl)phenyl)acrylamide]	A (GI50 < 50 nM)
C=CC(=O)Nc1cc(Nc2cc(N3OCC[C@@H]3c3ccc(Cl)c(Cl)c3F)ncn2)c(OC)cc1N1CCC(N2CCN(C(C)C)CC2)CC1 [compound 804, N-(5-((6-((R)-3-(3,4-dichloro-2-fluorophenyl)isoxazolidine-2-yl)pyrimidine-4-yl)amino)-2-(4-(4-isopropylpiperazine-1-yl)piperidine-1-yl)-4-methoxyphenyl) acrylamide]	A (GI50 < 50 nM)
C=CC(=O)Nc1cc(Nc2cc(N3OCC[C@@H]3c3cccc(F)c3)ncn2)c(OC)cc1N1CCC(N2CCN(C)CC2)CC1 [Example 31, N-(5-((6-((R)-3-(3-fluorophenyl)isoxazolidine-2-yl)pyrimidine-4-yl)amino)-4-methoxy-2-(4-(4-methylpiperazine-1-yl)piperidine-1-yl)phenyl) acrylamide]	A (GI50 < 50 nM)
C=CC(=O)Nc1cc(Nc2cc(N3OCC[C@@H]3c3ccc(Cl)c(F)c3)ncn2)c(OC)cc1N1CCC(N2C[C@@H]3C[C@H]2CN3CC)CC1 [compound 858, N-(5-((6-((R)-3-(4-chloro-3-fluorophenyl)isoxazolidine-2-yl)pyrimidine-4-yl)amino)-2-(4-((1S,4S)-5-ethyl-2,5-diazabicyclo [2.2.1]heptane-2-yl)piperidine-1-yl)-4-methoxyphenyl) acrylamide]	A (GI50 < 50 nM)
C=CC(=O)Nc1cc(Nc2cc(N3OCC[C@@H]3c3cccc4ccccc34)ncn2)c(OC)cc1N1CCC(N2C[C@@H]3C[C@H]2CO3)CC1 [compound 489, N-(2-(4-((1S,4S)-2-oxa-5-azabicyclo[2.2.1]heptane-5-yl)piperidine-1-yl)-4-methoxy-5-((6-((R)-3-(naphthalene-1-yl)isoxazolidine-2-yl)pyrimidine-4-yl)amino)phenyl)acrylamide]	A (GI50 < 50 nM)
C=CC(=O)Nc1cc(Nc2cc(N3OCC[C@@H]3c3cccc(C)c3F)ncn2)c(OC)cc1N1CCC(N2CC[C@@H](N(C)C)C2)CC1 [compound 418, N-(2-(4-((R)-3-(dimethylamino)pyrolidine-1-yl)piperidine-1-yl)-5-((6-((R)-3-(2-fluoro-3-methylphenyl)isoxazolidine-2-yl)pyrimidine-4-yl)amino)-4-methoxyphenyl) acrylamide]	A (GI50 < 50 nM)
C=CC(=O)Nc1cc(Nc2cc(N3OCC[C@@H]3c3cccc(F)c3F)ncn2)c(OC)cc1N1CCC(N2CCN(C3COC3)CC2)CC1 [Example 195, N-(5-((6-((R)-3-(2,3-difluorophenyl)isoxazolidine-2-yl)pyrimidine-4-yl)amino)-4-methoxy-2-(4-(4-(oxetane-3-yl)piperazine-1-yl)piperidine-1-yl)phenyl) acrylamide]	A (GI50 < 50 nM)
C=CC(=O)Nc1cc(Nc2cc(N3OCC[C@@H]3c3cccc(F)c3Cl)ncn2)c(OC)cc1N1CCC(N2CCN(C3COC3)CC2)CC1 [Example 201, N-(5-((6-((R)-3-(2-chloro-3-fluorophenyl)isoxazolidine-2-yl)pyrimidine-4-yl)amino)-4-methoxy-2-(4-(4-(oxetane-3-yl)piperazine-1-yl)piperidine-1-yl)phenyl)acrylamide]	A (GI50 < 50 nM)
C=CC(=O)Nc1cc(Nc2cc(N3OCC[C@@H]3c3cccc(Cl)c3F)ncn2)c(OC)cc1N1CC[C@@H](N(C)C)C1 [compound 834, N-(5-((6-((R)-3-(3-chloro-2-fluorophenyl)isoxazolidine-2-yl)pyrimidine-4-yl)amino)-2-((R)-3-(dimethylamino)pyrolidine-1-yl)-4-methoxyphenyl) acrylamide]	A (GI50 < 50 nM)
C=CC(=O)Nc1cc(Nc2cc(N3OCC[C@@H]3c3cc(F)cc(F)c3)ncn2)c(OC)cc1N1CCC(N2CCN(C3CC3)C[C@@H]2C)CC1 [Example 111, N-(2-(4-((S)-4-cyclopropyl-2-methylpiperazine-1-yl)piperidine-1-yl)-5-((6-((R)-3-(3,5-difluorophenyl)isoxazolidine-2-yl)pyrimidine-4-yl)amino)-4-methoxyphenyl) acrylamide]	A (GI50 < 50 nM)
C=CC(=O)Nc1cc(Nc2cc(N3OCC[C@@H]3c3cccc(F)c3F)ncn2)c(OC)cc1N1C[C@@H]2CCN(C)[C@@H]2C1 [compound 876, N-(5-((6-((R)-3-(2,3-difluorophenyl)isoxazolidine-2-yl)pyrimidine-4-yl)amino)-4-methoxy-2-((3aS,6aS)-1-methylhexahydropyrrolo [3,4-b]pyrrole-5(1H)-yl)phenyl) acrylamide]	A (GI50 < 50 nM)
C=CC(=O)Nc1cc(Nc2cc(N3OCC[C@@H]3c3cccc(OC)c3)ncn2)c(OC)cc1N1CCC(N2CCN(C(C)C)CC2)CC1 [compound 780, N-(2-(4-(4-isopropylpiperazine-1-yl)piperidine-1-yl)-4-methoxy-5-((6-((R)-3-(3-methoxyphenyl)isoxazolidine-2-yl)pyrimidine-4-yl)amino)phenyl)acrylamide]	B (50 nM ≤ GI50 < 500 nM)
C=CC(=O)Nc1cc(Nc2cc(N3OCC[C@@H]3c3ccc(F)c(Cl)c3)ncn2)c(OC)cc1N1C[C@@H]2C[C@H]1CO2 [compound 902, N-(2-((1S,4S)-2-oxa-5-azabicyclo [2.2.1]heptane-5-yl)-5-((6-((R)-3-(3-chloro-4-fluorophenyl)isoxazolidine-2-yl)pyrimidine-4-yl)amino)-4-methoxyphenyl) acrylamide]	A (GI50 < 50 nM)
C=CC(=O)Nc1cc(Nc2cc(N3OCC[C@@H]3c3ccc4ccccc4c3)ncn2)c(OC)cc1N1CCC(N2CCN(CC)CC2)CC1 [compound 515, N-(2-(4-(4-ethylpiperazine-1-yl)piperidine-1-yl)-4-methoxy-5-((6-((R)-3-(naphthalene-2-yl)isoxazolidine-2-yl)pyrimidine-4-yl)amino)phenyl)acrylamide]	B (50 nM ≤ GI50 < 500 nM)
C=CC(=O)Nc1cc(Nc2cc(N3OCC[C@@H]3c3ccc(C)nc3)ncn2)c(OC)cc1N1CCC(N2CCN(C3CC3)CC2)CC1 [Example 67, N-(2-(4-(4-cyclopropylpiperazine-1-yl)piperidine-1-yl)-4-methoxy-5-((6-((R)-3-(6-methylpyridine-3-yl)isoxazolidine-2-yl)pyrimidine-4-yl)amino)phenyl) acrylamide]	B (50 nM ≤ GI50 < 500 nM)
C=CC(=O)Nc1cc(Nc2cc(N3OCC[C@@H]3c3cccc(Cl)c3Cl)ncn2)c(OC)cc1N1C[C@@H]2C[C@H]1CN2CC [compound 524, N-(5-((6-((R)-3-(2,3-dichlorophenyl)isoxazolidine-2-yl)pyrimidine-4-yl)amino)-2-((1S,4S)-5-ethyl-2,5-diazabicyclo[2.2.1]heptane-2-yl)-4-methoxyphenyl) acrylamide]	A (GI50 < 50 nM)
